Target: T1, GSK3β (Homo sapiens, UniProt P49841)
T1 construct: gene GSK3B
Test: Kinase-Glo Plus luminescent enzymatic assay, […] ATP
Format: biochemical

T1 sequence (P49841 whole entry): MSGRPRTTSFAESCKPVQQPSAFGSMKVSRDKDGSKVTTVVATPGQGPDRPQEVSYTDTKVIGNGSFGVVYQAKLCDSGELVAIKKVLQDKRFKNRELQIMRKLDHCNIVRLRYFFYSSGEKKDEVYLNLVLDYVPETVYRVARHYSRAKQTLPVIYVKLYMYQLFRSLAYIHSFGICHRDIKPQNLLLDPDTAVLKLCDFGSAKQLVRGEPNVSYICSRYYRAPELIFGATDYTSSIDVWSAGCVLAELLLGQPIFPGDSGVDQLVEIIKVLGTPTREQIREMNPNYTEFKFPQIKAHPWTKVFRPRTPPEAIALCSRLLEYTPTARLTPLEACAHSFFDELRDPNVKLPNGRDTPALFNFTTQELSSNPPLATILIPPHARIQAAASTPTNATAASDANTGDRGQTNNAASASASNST

kushenol F [MOL006617] showed an IC50 of 4.96 ± 1.29 µM.
